Source: PubChem BioAssay AID2740 (NMMLSC, 2010)
Calls of active or inactive are those of the source.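 Rule for the calls: active = compounds whose fitted half-maximal concentration for changing the GFP signal is at or below a set limit; inactive = the rest.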

Test: TOR pathway RPL19A-GFP modulators, concentration series – cell-based, S. cerevisiae, flow cytometry, MLPCN hits, dose response (AID 2740);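 note: background is signal of the same compound in parental non-GFP s288c yeast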
Settings: S. cerevisiae RPL19A-GFP strain, flow cytometry fluorescence, 3 h; at 33 µM (top of the series)
For `Cc1c(N2C(=O)/C(=C\c3ccccc3O)SC2=S)c(=O)n(-c2ccccc2)n1C`, the GFP fluorescence, lower = active (kMESF (background-subtracted)) was 38.7 (inactive).
For `C=CCOc1cccc(C(=O)/C=C2/C(=O)Nc3ccccc32)c1`, the GFP fluorescence, lower = active (kMESF (background-subtracted)) was 40.7 (inactive).
For `O=c1c2cnn(-c3ccccc3)c2ncn1Cc1ccco1`, the GFP fluorescence, lower = active (kMESF (background-subtracted)) was 35.6 (inactive).
For `O=C1ON=C(c2ccccc2)/C1=C/c1ccc(-c2ccccc2[N+](=O)[O-])o1`, the GFP fluorescence, lower = active (kMESF (background-subtracted)) was 25.3 (inactive).
With `CC(C)(C)c1cc(C(c2cccnc2)N2CCN(CCO)CC2)cc(C(C)(C)C)c1O` (configuration not stated) the GFP fluorescence, lower = active (kMESF (background-subtracted)) was 4.63 (inactive).
For `Cc1ccsc1/C=N/Nc1ncc(Cl)cc1Cl`, the GFP fluorescence, lower = active (kMESF (background-subtracted)) was 49.1 (inactive).
With `O=C(OCn1ncc(Br)c(Br)c1=O)c1ccccc1Cl` the GFP fluorescence, lower = active (kMESF (background-subtracted)) was 44.4 (inactive).
For `CCOc1ccc(N2C(=O)C(Cl)=C(Nc3ccccc3O)C2=O)cc1`, the GFP fluorescence, lower = active (kMESF (background-subtracted)) was 45.1 (inactive).
For `CCCCC(=O)NC(=S)NNC(=O)CCc1ccccc1`, the GFP fluorescence, lower = active (kMESF (background-subtracted)) was 37.8 (inactive).
With `O=C1c2ccccc2C(=O)N1OS(=O)(=O)c1ccc(F)cc1` the GFP fluorescence, lower = active (kMESF (background-subtracted)) was 37.2 (inactive).
With `Cc1ccc(/C=C2\SC(=S)N(Cc3ccccc3)C2=O)o1` the GFP fluorescence, lower = active (kMESF (background-subtracted)) was 39.4 (inactive).
In the case of `COc1ccc(/C=C/C(=O)C2C(=O)C=C(C)OC2=O)cc1O` (configuration not stated), the GFP fluorescence, lower = active (kMESF (background-subtracted)) is reported as 39 (inactive).
For `Oc1c(Br)cc(Br)cc1C=Nc1ccc2[nH]ncc2c1`, the GFP fluorescence, lower = active (kMESF (background-subtracted)) was 36 (inactive).
In the case of `CCCc1cc(=O)oc2cc(C)cc(OCC(=O)NC3CC3)c12`, the GFP fluorescence, lower = active (kMESF (background-subtracted)) is reported as 39 (inactive).
With `CC1(C(=O)NC(=S)NNC(=O)c2ccncc2)CCCCC1` the GFP fluorescence, lower = active (kMESF (background-subtracted)) was 39.9 (inactive).
With `O=C1Nc2ccccc2/C1=C\C(=O)c1ccccc1` the GFP fluorescence, lower = active (kMESF (background-subtracted)) was 34.2 (inactive).
With `Cc1cccc(C(=O)NNC(=S)NC(=O)c2ccccc2)c1` the GFP fluorescence, lower = active (kMESF (background-subtracted)) was 48.3 (inactive).
With `CCOc1cc(C=C2C(=O)c3ccccc3C2=O)ccc1OCC(=O)Nc1ccc(C)cc1` the GFP fluorescence, lower = active (kMESF (background-subtracted)) was 43.8 (inactive).
With `COC(CNC(=O)c1ccc2c3c(onc13)-c1ccccc1C2=O)OC` the GFP fluorescence, lower = active (kMESF (background-subtracted)) was 14.8 (inactive).
With `O=C(/C=C/c1ccc(F)cc1)NC(=S)NNC(=O)c1cnccn1` the GFP fluorescence, lower = active (kMESF (background-subtracted)) was 36.8 (inactive).
For `Cc1sc(/C=C2\C(=O)ON=C2c2ccccc2)cc1Br`, the GFP fluorescence, lower = active (kMESF (background-subtracted)) was 45 (inactive).
For `O=S(=O)(CCN(CCS(=O)(=O)C(F)(F)F)CC1CCCO1)C(F)(F)F` (configuration not stated), the GFP fluorescence, lower = active (kMESF (background-subtracted)) was 27.1 (inactive).
With `Oc1ccc(CNc2ccccc2)c2cccnc12` the GFP fluorescence, lower = active (kMESF (background-subtracted)) was 42.2 (inactive).
For `O=C1NC(=O)N(CCc2ccc(F)cc2)C(=O)/C1=C/c1cccs1`, the GFP fluorescence, lower = active (kMESF (background-subtracted)) was 38.2 (inactive).
With `CC(=O)Oc1oc(-c2ccccc2)nc1C=Nc1ccc(N(C)C)cc1` the GFP fluorescence, lower = active (kMESF (background-subtracted)) was 41.6 (inactive).
With `Oc1ccc(N=Nc2ccccc2)o1` the GFP fluorescence, lower = active (kMESF (background-subtracted)) was 42.3 (inactive).
In the case of `O=C(c1ccc([N+](=O)[O-])o1)N1CCN(c2nc3c(F)cc(F)cc3s2)CC1`, the GFP fluorescence, lower = active (kMESF (background-subtracted)) is reported as 31.7 (inactive).
With `Cc1cccc(NC(c2ccc(C)s2)c2ccc3ccc(C)nc3c2O)n1` (configuration not stated) the GFP fluorescence, lower = active (kMESF (background-subtracted)) was 31.2 (inactive).
For `Cc1nn(C)c(C)c1N1C(=O)c2cccc3c(Br)ccc(c23)C1=O`, the GFP fluorescence, lower = active (kMESF (background-subtracted)) was 40.3 (inactive).
In the case of `Cc1cccc(N2C(=O)C(Cl)=C(Nc3c(C)n(C)n(-c4ccccc4)c3=O)C2=O)c1C`, the GFP fluorescence, lower = active (kMESF (background-subtracted)) is reported as 41.7 (inactive).
In the case of `CCN1C(=O)/C(=C\C(=O)c2cccs2)c2cc(Br)ccc21`, the GFP fluorescence, lower = active (kMESF (background-subtracted)) is reported as 34.5 (inactive).
In the case of `O=C(c1ccc(C(=O)N2CCCc3ccccc32)s1)N1CCCc2ccccc21`, the GFP fluorescence, lower = active (kMESF (background-subtracted)) is reported as 38.1 (inactive).
With `N=C1S/C(=C\c2ccco2)C(=O)N1c1nccs1` the GFP fluorescence, lower = active (kMESF (background-subtracted)) was 47.2 (inactive).
For `O=c1c2cc(Br)ccc2nc(-c2ccc([N+](=O)[O-])cc2)n1O`, the GFP fluorescence, lower = active (kMESF (background-subtracted)) was 15.6 (inactive).
For `COc1ccccc1N1C(=O)c2cccc3c(C(=O)O)ccc(c23)C1=O`, the GFP fluorescence, lower = active (kMESF (background-subtracted)) was 44.8 (inactive).
For `COc1cc(C=C2C(=O)c3ccccc3C2=O)cc(OC)c1`, the GFP fluorescence, lower = active (kMESF (background-subtracted)) was 41.6 (inactive).
In the case of `Cc1ccc(/C=C2\C(=O)NC(=S)N(c3ccc(F)cc3)C2=O)s1`, the GFP fluorescence, lower = active (kMESF (background-subtracted)) is reported as 38 (inactive).
In the case of `CN1C(=O)/C(=N\OC(=O)c2cccc3ccccc23)c2ccccc21`, the GFP fluorescence, lower = active (kMESF (background-subtracted)) is reported as 42.9 (inactive).
With `O=C(NC(=S)NNC(=O)c1cnccn1)c1ccc(Cl)cc1` the GFP fluorescence, lower = active (kMESF (background-subtracted)) was 48.5 (inactive).
In the case of `N/C(Cc1ccc(Cl)c(Cl)c1)=N\OC(=O)c1cccs1`, the GFP fluorescence, lower = active (kMESF (background-subtracted)) is reported as 40.7 (inactive).
For `CC[C@@]1(c2ccccc2OC)ON(c2ccccc2C(F)(F)F)C1=O`, the GFP fluorescence, lower = active (kMESF (background-subtracted)) was 35.9 (inactive).
For `CC1=C(C)/C(=N\OS(=O)(=O)c2ccccc2)C=CC1=O`, the GFP fluorescence, lower = active (kMESF (background-subtracted)) was 24.9 (inactive).
For `O=C(Oc1ccnc2cc(Cl)ccc12)N1CCCCCC1`, the GFP fluorescence, lower = active (kMESF (background-subtracted)) was 25.6 (inactive).
In the case of `Cc1cc(O)c(C(=O)/C=C/c2c(F)c(F)c(F)c(F)c2F)c(=O)o1`, the GFP fluorescence, lower = active (kMESF (background-subtracted)) is reported as 26.6 (inactive).
In the case of `Cc1ccc(C(=O)Sc2cccccc2=O)cc1`, the GFP fluorescence, lower = active (kMESF (background-subtracted)) is reported as 27.8 (inactive).
In the case of `O=C(Nc1nc2ccc(F)cc2s1)c1ccccn1`, the GFP fluorescence, lower = active (kMESF (background-subtracted)) is reported as 48.2 (inactive).
For `N/C(=N\OC(=O)c1ccccc1Cl)c1ccc(Cl)cc1`, the GFP fluorescence, lower = active (kMESF (background-subtracted)) was 38.2 (inactive).
